Measurements as given in patent US20250320288A1, “METHOD OF TREATING VITILIGO WITH INTERFERON-GAMMA ANTIBODY” (Elixiron Immunotherapeutics (Hong Kong), priority 2022, published 2025).
“Also recorded” adds a separate entry of the source.

How the values were obtained:
[1] = cited from earlier work
primary melanocytes [2] = assay: Melanocyte cell viability after IFN-γ, chemokines, cell death inhibitors or 2A6Q, Day 2 and Day 7; assay type: cell-based, human; settings: for rescue of IFN-γ induced melanocyte cell death (cell viability): melanocytes with IFN-γ, up to seven days
Experimental: To determine cell viability of melanocyte after treatment with IFN-γ, CXCL9, CXCL10, CXCL11, at Day 2, and Day 7, the cells were collected and seeded into 96-well plates. After adhesion, cells were treated with IFN-γ (0, 10, 100 ng/ml) with different compounds: 2A6Q, CXCL9, CXCL10, CXCL11, ROS scavenger (NAC), necroptosis inhibitor (NEC-1), pyroptosis inhibitor (VX-765), apoptosis inhibitor (QVD-OPH), Ferroptosis inhibitor (Liproxstaitin-1, Ferrostatin-1, DFO). Cell viability was measured using a CellTiter-Glo luminescent cell viability assay kit (Promega) according to the manufacturer's protocol. The […] of the final reaction product was measured using a luminometer (SpectraMax® iD3 Multi-Mode Microplate Reader (Molecular Devices). After calculation, the viability of control cells was 100%, and all others were normalized to control and shown as relative cell viability (%). Treatment dosage N-acetylcysteine (NAC; 0.05 mM, 1 mM), Necrostatin-1 (NEC-1; 20 μM, 2 μM), Belnacasan (VX-765; 50 μg/mL, 5 μg/mL), Quinoline-Val Asp-Difluorophenoxymethylketone (QVD-OPH; 10 μM, 2 μM), Liproxstaitin-1 (10 μM, 5 μM, 1 μM, 0.05 μM), Ferrostatin-1 (5 μM, 1 μM), Deferoxamine (DFO; 10 μM, […], 1 μM, 0.05 μM), 2A6Q (10 μg/mL), CXCL9 (10 ng/mL, 10 pg/mL), CXCL10 (10 ng/ml, 10 pg/mL), CXCL11(10 ng/mL, 10 pg/mL).

primary melanocytes [3] = assay: Cell morphology assay in melanocytes; assay type: cell-based, human; settings: primary melanocytes, 7 days of treatment

NI-0501: another anti-IFN-γ antibody, described in U.S. Pat. No. 7,700,098 B2
Key Study Findings: mortalities ([1]; at all dose groups): There were mortalities | Key Study Findings: GI tract infection caused by Shigella sp. and Campylobacter sp. ([1]; cynomolgus monkey, in vivo): infection was confirmed | Key Study Findings: monkeys early sacrificed because of severe clinical signs ([1]; from 18 monkeys): 7 monkeys were early

CXCL10: IFN-γ downstream cytokine added to melanocytes
effect on cell viability of melanocytes (individual cytokine) (primary melanocytes [2]; day 7 of treatment): not CXCL9, CXCL10, or CXCL11 significantly decreases

CCO[C@@H]1OC(=O)C[C@@H]1NC(=O)[C@@H]1CCCN1C(=O)[C@@H](NC(=O)c1ccc(N)c(Cl)c1)C(C)(C)C [VX-765, Belnacasan]
rescue of IFN-γ induced melanocyte cell death (cell viability) (primary melanocytes [2]): unable to restore

CC(=O)N[C@@H](CS)C(=O)O [NAC, N-acetylcysteine]
rescue of IFN-γ induced melanocyte cell death (cell viability) (primary melanocytes [2]): did not find a rescue effect; also recorded: unable to restore

CC(C)[C@H](NC(=O)c1ccc2ccccc2n1)C(=O)N[C@@H](CC(=O)O)C(=O)COc1c(F)cccc1F [QVDOPH, Quinoline-Val Asp-Difluorophenoxymethylketone]
rescue of IFN-γ induced melanocyte cell death (cell viability) (primary melanocytes [2]): unable to restore | rescue of IFN-γ induced melanocyte cell death (cell viability) (primary melanocytes [2]; listed as pan-caspase inhibitor): unable to rescue

CN1C(=O)C(Cc2c[nH]c3ccccc23)NC1=S (centres unmarked) [NEC-1, Necrostatin-1]
rescue of IFN-γ induced melanocyte cell death (cell viability) (primary melanocytes [2]): unable to restore

Clc1cccc(CN=C2Nc3ccccc3NC23CCNCC3)c1 [Liproxstatin-1]
rescue of IFN-γ induced melanocyte cell death (cell viability) (primary melanocytes [2]): can partially rescue

IFN-α
morphology change in melanocyte (loss of dendrite, ballooning of cytoplasm) (primary melanocytes [3]): not IFN-α was found to contributes to morphology change
